Reference: US20250009742A1 (priority 2021, published 2025)
Like-named read-outs stand apart in the source and are kept apart here.

Experiments:
HepAD38 cells = assay: Cell viability assay (EZ-Cytox), cytotoxicity; format: cell-based; settings: 65 hours
Procedure: (§1) HepAD38 cells were cultured for 2 days in Dulbecco's Modified Eagle's medium (Welgene, LM001-05) supplemented with 10% FBS without tetracycline. […] After 65 hours of treatment, viability was measured using EZ-Cytox cell viability assay kit (Daeil Lab Service) according to the manufacturer's instructions. The absorbance was measured at 450 nm using a spectrophotometer (Spark, Tecan).

Protein = Protein (Hepatitis B virus genotype D subtype ayw, UniProt P03146); assay: Protein inhibition rate / EC50 (Table 1, no method described); format: biochemical
intracellular HBV DNA = assay: Real-time PCR for intracellular HBV DNA in HepAD38 cells; format: cell-based; settings: 65 hours treatment
[1] = Cell viability assay (EZ-Cytox), cytotoxicity; format: cell-based; settings: human, HepAD38 cells; for viability at 65 h, 100 µM: read-out: Cytotoxicity % Livability (@100 μM)
Procedure: as §1

[2] = Hepatitis B virus, HePAD38, 65 h

Sequence of Protein (P03146 whole entry): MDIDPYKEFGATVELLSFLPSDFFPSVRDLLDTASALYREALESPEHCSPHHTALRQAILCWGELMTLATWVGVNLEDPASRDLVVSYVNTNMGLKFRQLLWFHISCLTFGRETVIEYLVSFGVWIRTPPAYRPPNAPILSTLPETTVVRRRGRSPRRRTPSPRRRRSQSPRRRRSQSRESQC

Compound	CC50 (HepAD38 cells)	Cytotoxicity % Livability (@100 μM) (HepAD38 cells)	EC50 (Protein)	Protein % inhibition rate (@30 μM) (Protein; @30 μM)	IC50 (intracellular HBV DNA; read-out: IC50)	CC50 at 65 h [1]	IC50 (intracellular HBV DNA; [2])	IC50 (intracellular HBV DNA)	viability at 65 h, 100 µM [1]	inhibition at 30 µM (Protein)
1-((4-bromo-1H-pyrazol-3-yl)methyl)-3-(3-chloro-4-fluorophenyl)-1-(4-methoxyphenyl)urea [Example 61]	98.8 µM	40.8%	4.4 µM	81.8%	0.502 µM	–	–	–	–	–
3-(3-chloro-4-fluorophenyl)-1-((1-(hydroxymethyl)-5-(trifluoromethyl)-1H-pyrazol-3-yl)methyl)-1-(6-methoxypyridin-3-yl)urea [Example 79]	–	18.5%	–	–	0.019 µM	–	–	–	–	–
COc1ncc(N(Cc2n[nH]c(C(F)F)c2Br)C(=O)Nc2ccc(F)c(Cl)c2)cn1 [Example 98, 1-((4-bromo-5-(difluoromethyl)-1H-pyrazol-3-yl)methyl)-3-(3-chloro-4-fluorophenyl)-1-(2-methoxypyrimidin-5-yl)urea]	–	30.1%	–	–	–	> 66 µM	0.018 µM	–	–	–
COc1ncc(N(Cc2n[nH]c(C(F)F)c2Br)C(=O)Nc2ccc(F)c(Cl)c2)cn1 [Example 81, 1-((4-bromo-5-(difluoromethyl)-1H-pyrazol-3-yl)methyl)-3-(3-chloro-4-fluorophenyl)-1-(2-methoxypyrimidin-5-yl)urea]	> 100 µM	76.0%	–	–	–	–	–	0.0145 µM	–	–
COc1ccc(N(Cc2n[nH]c3ccccc23)C(=O)Nc2ccc(F)c(Cl)c2)cn1 [Example 43, 1-((1H-indazol-3-yl)methyl)-3-(3-chloro-4-fluorophenyl)-1-(6-methoxypyridin-3-yl)urea]	–	–	6.06 µM	–	–	> 100 µM	0.043 µM	–	92%	96.7%
COc1ccc(N(Cc2n[nH]c3c2CC(C(=O)O)CC3)C(=O)Nc2ccc(F)c(Cl)c2)cn1 (stereo not shown) [Example 52, 3-((3-(3-chloro-4-fluorophenyl)-1-(6-methoxypyridin-3-yl)ureido)methyl)-4,5,6,7-tetrahydro-1H-indazole-5-carboxylic acid]	–	–	–	–	–	> 100 µM	> 1.1 µM	–	100%	4%
CCc1cc(CN(C(=O)Nc2ccc(F)c(Cl)c2)c2ccc(OC)nc2)n[nH]1 [Example 60, 3-(3-chloro-4-fluorophenyl)-1-((5-ethyl-1H-pyrazol-3-yl)methyl)-1-(6-methoxypyridin-3-yl)urea]	–	–	3 µM	–	–	> 100 µM	0.11 µM	–	76%	94.7%
COc1ccc(N(Cc2n[nH]c3c2CN(C(C)=O)CC3)C(=O)Nc2ccc(F)c(Cl)c2)cc1 [Example 33, 1-((5-acetyl-4,5,6,7-tetrahydro-1H-pyrazolo[4,3-c]pyridin-3-yl)methyl)-3-(3-chloro-4-fluorophenyl)-1-(4-methoxyphenyl)urea]	–	–	–	–	–	–	> 1.1 µM	–	96%	77.8%
COc1ccc(N(Cc2n[nH]c3c2CC(F)(F)CC3)C(=O)Nc2ccc(F)c(Cl)c2)cn1 [Example 40, 3-(3-chloro-4-fluorophenyl)-1-((5,5-difluoro-4,5,6,7-tetrahydro-1H-indazol-3-yl)methyl)-1-(6-methoxypyridin-3-yl)urea]	–	–	3.8 µM	–	–	82.5 µM	0.016 µM	–	4.6%	99.5%
COc1ccc(N(Cc2nn(C)c3c2CCCC3)C(=O)Nc2ccc(F)c(Cl)c2)cc1 [Example 36, 3-(3-chloro-4-fluorophenyl)-1-(4-methoxyphenyl)-1-((1-methyl-4,5,6,7-tetrahydro-1H-indazol-3-yl)methyl)urea]	–	–	9.2 µM	–	–	> 100 µM	0.036 µM	–	100%	91.6%
COc1ccc(N(Cc2ccn(C)n2)C(=O)Nc2ccc(F)c(Cl)c2)cc1 [Example 35, 3-(3-chloro-4-fluorophenyl)-1-(4-methoxyphenyl)-1-((1-methyl-1H-pyrazol-3-yl)methyl)urea]	–	–	–	–	–	–	> 1.1 µM	–	90.5%	33.7%
COc1ccc(N(Cc2n[nH]c3c2CSCC3)C(=O)Nc2ccc(F)c(Cl)c2)cn1 [Example 45, 3-(3-chloro-4-fluorophenyl)-1-(6-methoxypyridin-3-yl)-1-((1,4,6,7-tetrahydrothiopyrano[4,3-c]pyrazol-3-yl)methyl)urea]	–	–	3.3 µM	–	–	> 50 µM	0.012 µM	–	3.3%	95.6%
Cn1cc(N(Cc2n[nH]c3c2CCC3)C(=O)Nc2ccc(F)c(Cl)c2)ccc1=O [Example 65, 3-(3-chloro-4-fluorophenyl)-1-(1-methyl-6-oxo-1,6-dihydropyridin-3-yl)-1-((1,4,5,6-tetrahydrocyclopenta[c]pyrazol-3-yl)methyl)urea]	–	–	> 30 µM	–	–	> 100 µM	> 1.1 µM	–	112%	53.5%
O=C(Nc1ccc(F)c(Cl)c1)N(Cc1n[nH]c2c1CCCC2)c1ccon1 [Example 132, 3-(3-chloro-4-fluorophenyl)-1-(isoxazol-3-yl)-1-((4,5,6,7-tetrahydro-1H-indazol-3-yl)methyl)urea]	–	–	5.3 µM	–	–	> 100 µM	0.055 µM	–	81.9%	86.9%
COc1cc(N(Cc2n[nH]c3c2CCCC3)C(=O)Nc2ccc(F)c(Cl)c2)ccn1 [Example 54, 3-(3-chloro-4-fluorophenyl)-1-(2-methoxypyridin-4-yl)-1-((4,5,6,7-tetrahydro-1H-indazol-3-yl)methyl)urea]	–	–	3.5 µM	–	–	40.6 µM	0.013 µM	–	17.4%	84%
COc1ccc(N(Cc2n[nH]c3c2CCC3)C(=O)Nc2ccc(F)c(Cl)c2)cc1 [Example 46, 3-(3-chloro-4-fluorophenyl)-1-(4-methoxyphenyl)-1-((1,4,5,6-tetrahydrocyclopenta[c]pyrazol-3-yl)methyl)urea]	–	–	4.3 µM	–	–	> 100 µM	0.0094 µM	–	100%	92.8%
COc1ccc(N(Cc2n[nH]c3c2CCCC3)C(=O)Nc2ccc(F)c(Cl)c2)cc1OC [Example 116, 3-(3-chloro-4-fluorophenyl)-1-(3,4-dimethoxyphenyl)-1-((4,5,6,7-tetrahydro-1H-indazol-3-yl)methyl)urea]	–	–	–	–	–	> 100 µM	> 1.1 µM	–	104%	69.5%
COc1ccc(N(Cc2n[nH]c3c2CCC3C)C(=O)Nc2ccc(F)c(Cl)c2)cn1 (stereo not shown) [Example 59, 3-(3-chloro-4-fluorophenyl)-1-(6-methoxypyridin-3-yl)-1-((6-methyl-1,4,5,6-tetrahydrocyclopenta[c]pyrazol-3-yl)methyl)urea]	–	–	4 µM	–	–	> 100 µM	0.013 µM	–	91.2%	94.9%
COc1ccc(N(Cc2cc(C)[nH]n2)C(=O)Nc2ccc(F)c(Cl)c2)cn1 [Example 50, 3-(3-chloro-4-fluorophenyl)-1-(6-methoxypyridin-3-yl)-1-((5-methyl-1H-pyrazol-3-yl)methyl)urea]	–	–	3.8 µM	–	–	> 100 µM	0.26 µM	–	–	94.3%
COc1cc(OC)cc(N(Cc2n[nH]c3c2CCCC3)C(=O)Nc2ccc(F)c(Cl)c2)c1 [Example 117, 3-(3-chloro-4-fluorophenyl)-1-(3,5-dimethoxyphenyl)-1-((4,5,6,7-tetrahydro-1H-indazol-3-yl)methyl)urea]	–	–	–	–	–	> 33 µM	> 1.1 µM	–	3.2%	7%
COc1ccc(N(Cc2n[nH]c3c2CN(C)CC3)C(=O)Nc2ccc(F)c(Cl)c2)cc1 [Example 37, 3-(3-chloro-4-fluorophenyl)-1-(4-methoxyphenyl)-1-((5-methyl-4,5,6,7-tetrahydro-1H-pyrazolo[4,3-c]pyridin-3-yl)methyl)urea]	–	–	–	–	–	–	> 1.1 µM	–	22.4%	28.3%
